From ChEMBL document CHEMBL1140843, “Discovery of new inhibitors of D-alanine:D-alanine ligase by structure-based virtual screening” (J Med Chem, 2008)
≈ marks a conversion by molar mass, not a printed value. Calls of active or inactive are those of the source. No cut-off for these calls is given here.

Experiments:
[1] = Inhibition of Escherichia coli DdlB
[2] = test system: Escherichia coli; experiment: Antibacterial activity against Escherichia coli SM1411 after 16 hrs broth microdilution method; format: functional
[3] = test system: Staphylococcus aureus; experiment: Antibacterial activity against Staphylococcus aureus 8325-4 after 16 hrs broth microdilution method; format: functional; settings: 8325-4, 16 h
[4] = test system: Escherichia coli; experiment: Inhibition of Escherichia coli DdlB at 250 uM preincubated for 15 mins before substrate addition measured after 20 mins
[5] = test system: Escherichia coli; experiment: Antibacterial activity against Escherichia coli 1411 after 16 hrs broth microdilution method; format: functional

| MIC [2] | MIC [3] | Activity [4] | MIC [5] | Compound | Ki [1] |
| --- | --- | --- | --- | --- | --- |
|  |  |  |  | O=C(/N=N/C(=O)Nc1ccc(Cl)cc1)NCc1cccnc1 | 33 µM |
|  |  |  |  | C[C@@H](N)C(=O)NP(=O)(O)O | 50 µM |
|  |  |  |  | N[C@@H](C[C@H]1C[C@]1(C(=O)O)c1ccccc1)C(=O)O | 12.5 µM |
| 64 µg/mL (≈ 138 µM) | 32 µg/mL (≈ 69.1 µM) | Active |  | COc1ccc2nc3cc(Cl)ccc3c(Nc3ccc(O)c(CN4CCN(C)CC4)c3)c2c1 | 218 µM |
|  |  |  |  | C/C(O)=C(\C#N)C(=O)Nc1cc(Br)ccc1Br | 185 µM |
|  |  |  |  | CS[C@@H](CP(=O)(O)[C@@H](C)N)C(=O)O | 4 µM |
| 8 µg/mL (≈ 24 µM) | 32 µg/mL (≈ 96 µM) | Active | 32 µg/mL (≈ 96 µM) | COc1ccc2c(c1)c1c(C)c3cnccc3c(C)c1n2CCCN | 11 µM |
|  |  |  |  | CC(C)(CCl)C(=O)Nc1ccc(C(F)(F)F)cc1 | 4 µM |
|  |  |  |  | N[C@@H]1CONC1=O [CYCLOSERINE] | 22 µM |
